The ED50 is the midpoint of the dose-response relation. The term LD50 denotes the dose expected to kill half of the subjects tested. Low values mean a more toxic substance, high ones a less toxic substance.

This passage reports ED50, Therapeutical index and LD50 results from patent US5175163A, “Triazolyl thioamide derivates” (Egis Gyogyszergyar, priority 1989, dated 1992).

The subject of one data set is reserpine ptosis on mice. Kind of data set: Antagonism of reserpine ptosis on mice. The conditions noted are these: for ED50: Mus musculus, sc; for Therapeutical index: reserpine ptosis, mice, Table II.
For data set [1], the system named is nicotine spasm and lethality. Kind of data set: Inhibition of nicotine spasm and lethality. The class given is in vivo. The following applies: for ED50: po, 1 h, orally, an hour before nicotine 1.4 mg/kg i.v., spasms and lethality within an hour. Here is the method:
The test was carried out according to the method of Stone. [Arch. Int. Pharmacodyn.

A further data set relates to pentetrazole spasm. Kind of data set: Inhibition of pentetrazole spasm. The class given is in vivo. The conditions noted are these: white mice; for ED50: Mus musculus, po, 1 h, orally, one hour before pentetrazole 125 mg/kg intraperitoneally, tonic extensoric spasms of the hind limbs; for Therapeutical index: pentetrazole spasm, Table III.
The test system of a further data set is Hexobarbital narcosis. Nature of the data set: Hexobarbital narcosis potentiating effect. The following applies: for ED50: Mus musculus, po, 1 h; for Therapeutical index: hexobarbital narcosis, white mice, Table V.
The conditions of data set [2]: Table III (pentetrazole spasm).
Data set [3] relates to tetrabenazine ptosis on mice. Kind of data set: Antagonism of tetrabenazine ptosis on mice. The following applies: Mus musculus, po.
Protocol: (§1) Groups consisting of 10-20 mice each were treated perorally, with different doses of the compounds to be tested. The control group was treated only with the corresponding carrier. After 30 minutes tetrabenazine [3-isobutyl-9,10-dimethoxy-1,2,3,4,6,7-hexahydrobenzo[a]-quinolizine-2-one] was administered intraperitoneally at a dosage of 50 mg/kg. The number of animals having closed palpebral fissure was determined in each group after 30, 60, 90 and 120 minutes, resp.
(§2) The mean value of ptosis was calculated in each group, and the deviation from that of the control group (i.e. the inhibition) was expressed in percentage.
The subject of data set [4] is tetrabenazine ptosis on mice. The following applies: mouse, in vivo, po.
Protocol: as §1, §2

Where two headings read alike, the source gives them in different places.

Protocol for Hexobarbital narcosis: Groups consisting of six mice were used for each dose. The test compound was administered orally and one hour after this treatment narcosis was induced by means of a 40 mg/kg i.v. dose of hexobarbital. The control group received carrier instead of the test compound.
The ED50 values thus transformed were calculated.
Protocol for reserpine ptosis on mice: Groups consisting of 10 mice each were treated with 6 mg/kg of reserpine, subcutaneously, according to the method of Hoffmeister et. al. [Arzneim. […] The animals with ptosis were counted 60 and 120 minutes after the administration of the compounds to be tested. Evaluation was carried out as given under the above test.

Take `CN(C)CCC=C1c2ccccc2CCc2ccccc21` [Amitryptiline, reference compound]: in the data set with reserpine ptosis on mice, the 50% effect level (ED50) was put at a dose of 65 mg/kg and the Therapeutical index amounted to 3.5. In “in vivo”, this molecule displayed an LD50 of 225 mg/kg.
For `Nc1nc(N2CCOCC2)nn1C(=S)NCCCOc1cccc(CN2CCCCC2)c1` [Example 1, 1-(5-Amino-3-morpholino-1H-1,2,4-triazol-1-yl)-N-{3-[3-(1-piperidinylmethyl)phenoxyl]propyl}carbothioamide], the Therapeutical index in data set [1] (nicotine spasm and lethality, Table IV) was > 29; in the data set with pentetrazole spasm it was > 7; in the data set with Hexobarbital narcosis, > 40; in the data set on reserpine ptosis on mice it was > 117. Moreover, the ED50 in data set [1] was found to be 68 mg/kg; with pentetrazole spasm, 295 mg/kg; in the data set on Hexobarbital narcosis it was 50 mg/kg; with reserpine ptosis on mice, 17 mg/kg. For the same molecule, the LD50 in the data set “in vivo” is > 2000 mg/kg.
For the molecule `CN(C)c1nc(N)n(C(=S)NCCCOc2cccc(CN3CCCCC3)c2)n1` [Example 2, 1-[5-Amino-3-dimethylamino-1H-1,2,4-triazol-1-yl]-N-{3-[3-(1-piperidinylmethyl)phenoxy]propyl}carbothioamide], the LD50 (in data set [2]; in “in vivo”) was > 1000 mg/kg throughout. In addition, the ED50 is 64 mg/kg with pentetrazole spasm and 110 mg/kg with Hexobarbital narcosis. In addition, the Therapeutical index in the data set with pentetrazole spasm is on record as > 15; in the data set on Hexobarbital narcosis, > 9.
In data set [3], `CN1CCN(c2nc(N)n(C(=S)NCCCOc3cccc(CN4CCCCC4)c3)n2)CC1` [Example 3, 1-[5-Amino-3-(4-methylpiperazinyl)-1H-1,2,4-triazol-1-yl]-N-{3-[3-(1-piperidinylmethyl)phenoxy]propyl}carbothioamide] displayed an ED50 of 11 mg/kg. For the same molecule, the Therapeutical index in data set [4] is recorded as > 90. Further, the LD50 in “in vivo” is > 1000 mg/kg.
Regarding `C=CCN(CC=C)c1nc(N)n(C(=S)NCCCOc2cccc(CN3CCCCC3)c2)n1` [Example 5, 1-[5-Amino-3-diallylamino-1H-1,2,4-triazol-1-yl]-N-{3-[3-(1-piperidinylmethyl)phenoxy]propyl}carbothioamide], in the data set on Hexobarbital narcosis, the ED50 worked out at 200 mg/kg and the Therapeutical index was > 5. Further, the LD50 in “in vivo” is > 1000 mg/kg.
With `COc1ccc(CCNC(=S)n2nc(SC)nc2N)cc1OC` [Example 6, 1-[5-Amino-3-methylthio-1H-1,2,4-triazol-1-yl]-N-[2-(3,4-dimethoxyphenyl)ethyl]carbothioamide], in the data set on reserpine ptosis on mice, the ED50 was 20 mg/kg and the Therapeutical index was > 100. The LD50 in “in vivo” was > 2000 mg/kg.
Regarding `CCCC(C)(COC(N)=O)COC(N)=O` [Meprobamate, reference compound], the Therapeutical index with Hexobarbital narcosis is listed as 4.1. Moreover, in the data set “in vivo”, the LD50 turned out to be 1100 mg/kg.
Molecule `OC(CCN1CCCCC1)(c1ccccc1)C1CCCCC1` (stereo not shown) [Trihexyphenidyl, reference compound] showed an ED50 in data set [1] of 20 mg/kg.
Regarding `CN1C(=O)OC(C)(C)C1=O` [Trimethadion, reference compound], in data set [2], the LD50 worked out at 2050 mg/kg.
